The structures appear in SMILES notation. Active and inactive are the calls of the source. The calls are words filed in the database; no cut-off is given here.

Holding throughout (assay type): functional, organism-based
Experiment [1] relates to Mus musculus. Kind of experiment: In vivo antimalarial activity against Plasmodium chabaudi in BALB/c mice (Mus musculus) at a dose of 0.25 mg/kg; active. Set-up: dose 0.25 mg/kg.
For experiment [2], the system named is Plasmodium falciparum. As to the kind of experiment: In vitro inhibition of multidrug-resistant Plasmodium falciparum K1; […].
Experiment [3] has as its system Plasmodium falciparum. Kind of experiment: In vitro inhibition of multidrug-resistant Plasmodium falciparum K1.

As usually defined, the IC50 is the concentration that gives 50% inhibition. On to `COc1cc2c(cc1OC)-c1cc3cc(OC)c(OC)cc3c[n+]1CC2.[Cl-]`, for which the result in experiment [1] was Active. In experiment [2], this molecule came in with an IC50 of 0.8 µg/mL.

In experiment [2], `COc1cc2c(cc1OC)-c1cc3c(OC)c(OC)ccc3c[n+]1CC2.[Cl-]` registered an IC50 of 0.8 µg/mL. On to `COc1ccc2cc3[n+](cc2c1OC)CCc1cc2c(cc1-3)OCO2.[Cl-]` [BERBERINE CHLORIDE], for which half-maximal inhibition in experiment [3] (IC50) required 0.36 µg/mL. As to `COc1cc2c(cc1OC)-c1c(N)c3cc(OC)c(OC)cc3c[n+]1CC2.[Cl-]`, the outcome in experiment [1] was Active. In addition, 0.8 µg/mL corresponded to half-maximal inhibition in experiment [2] (IC50).

(Values after ChEMBL document CHEMBL1152011, “The first protoberberine alkaloid analogue with in vivo antimalarial activity” (Bioorg Med Chem Lett, 1994).)
